Drawing on patent publication US9902702B2, “Spirocycloheptanes as inhibitors of rock” (BRISTOL-MYERS SQUIBB COMPANY, priority 2014, dated 2018), this text covers IC50 for 18 compounds.

Molecules are shown by their SMILES.

In this test the target is ROCK2 (Homo sapiens, UniProt O75116). In words: ROCK assay: phosphorylation of FITC peptide substrate, LABCHIP 3000 mobility shift. In kind it is biochemical. The conditions noted are these: 5 μM ATP, 1.5 μM peptide substrate; read-out: ROCK2 Activity (ROCK IC50 range). Summed up: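 IC50 values come from curve-fitting percent kinase inhibition across a compound dilution series. The reaction is started with Rho kinase variant in HEPES pH 7.5 buffer with MgCl2, Brij-35 and DTT, with 5 μM ATP, 1.5 μM FITC-labelled peptide and under 2% DMSO. After EDTA quench, product and substrate are separated by microfluidic mobility shift.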
ROCK2, sequence (O75116 whole entry, species assumed): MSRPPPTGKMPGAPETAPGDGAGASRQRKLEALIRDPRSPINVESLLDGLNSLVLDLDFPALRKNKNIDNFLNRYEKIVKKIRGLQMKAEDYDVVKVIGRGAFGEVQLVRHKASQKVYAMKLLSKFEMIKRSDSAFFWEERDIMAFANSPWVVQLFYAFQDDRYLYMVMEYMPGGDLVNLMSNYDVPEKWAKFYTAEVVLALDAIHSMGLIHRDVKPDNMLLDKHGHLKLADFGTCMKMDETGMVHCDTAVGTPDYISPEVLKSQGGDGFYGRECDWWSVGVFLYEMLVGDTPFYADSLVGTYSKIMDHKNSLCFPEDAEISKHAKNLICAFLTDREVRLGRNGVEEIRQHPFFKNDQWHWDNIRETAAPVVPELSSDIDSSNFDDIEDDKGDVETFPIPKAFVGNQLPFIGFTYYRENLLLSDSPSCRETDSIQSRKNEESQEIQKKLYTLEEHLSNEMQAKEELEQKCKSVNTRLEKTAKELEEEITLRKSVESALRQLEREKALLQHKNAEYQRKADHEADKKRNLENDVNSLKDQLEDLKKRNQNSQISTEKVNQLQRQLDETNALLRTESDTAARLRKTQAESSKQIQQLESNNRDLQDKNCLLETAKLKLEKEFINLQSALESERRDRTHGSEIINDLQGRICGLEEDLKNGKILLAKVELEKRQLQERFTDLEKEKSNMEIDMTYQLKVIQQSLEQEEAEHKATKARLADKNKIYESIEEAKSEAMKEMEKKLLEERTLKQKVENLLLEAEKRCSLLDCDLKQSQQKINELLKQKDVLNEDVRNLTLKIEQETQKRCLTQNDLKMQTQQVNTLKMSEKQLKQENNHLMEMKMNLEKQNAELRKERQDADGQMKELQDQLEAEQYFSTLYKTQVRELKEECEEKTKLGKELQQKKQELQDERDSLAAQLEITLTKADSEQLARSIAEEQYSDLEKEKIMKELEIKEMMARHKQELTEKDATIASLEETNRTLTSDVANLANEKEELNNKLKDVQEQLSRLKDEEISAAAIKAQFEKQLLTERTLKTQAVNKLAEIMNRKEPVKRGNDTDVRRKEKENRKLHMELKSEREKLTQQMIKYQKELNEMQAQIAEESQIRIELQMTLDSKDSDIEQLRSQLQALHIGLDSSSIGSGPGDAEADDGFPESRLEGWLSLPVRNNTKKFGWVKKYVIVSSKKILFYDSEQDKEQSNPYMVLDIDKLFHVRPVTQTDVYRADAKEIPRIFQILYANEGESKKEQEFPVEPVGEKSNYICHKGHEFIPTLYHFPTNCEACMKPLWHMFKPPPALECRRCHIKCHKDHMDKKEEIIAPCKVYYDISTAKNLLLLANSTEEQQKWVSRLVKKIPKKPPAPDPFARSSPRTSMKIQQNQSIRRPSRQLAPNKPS

What is called IC50 is the concentration needed to halve the response being measured. For the compound `Cn1ccc(-c2ccc3c(C(=O)NC4CC5(C4)CC(c4n[nH]c(=O)c6ccccc46)C5)nn(CC(C)(C)O)c3c2)n1` (stereo not drawn) [Example 145, 1-(2-hydroxy-2-methylpropyl)-6-(1-methyl-1H-pyrazol-3-yl)-N-((αR)-6-(4-oxo-3,4-dihydrophthalazin-1-yl)spiro[3.3]heptan-2-yl)-1H-indazole-3-carboxamide], the IC50 lay within 2.01 to 5 nM.

Turning to `Cn1nccc1-c1ccc2c(C(=O)NC3CC4(C3)CC(c3n[nH]c(=O)c5ccccc35)C4)nn(CC(C)(C)O)c2c1` (stereo not drawn) [Example 146, 1-(2-hydroxy-2-methylpropyl)-6-(1-methyl-1H-pyrazol-5-yl)-N-((αR)-6-(4-oxo-3,4-dihydrophthalazin-1-yl)spiro[3.3]heptan-2-yl)-1H-indazole-3-carboxamide], the concentration for half-maximal inhibition (IC50) lay within 2.01 to 5 nM.

Take `Cn1cc(-c2ccc3c(C(=O)NC4CC5(C4)CC(c4n[nH]c(=O)c6ccccc46)C5)nn(CC(C)(C)O)c3c2)cn1` (stereo not drawn) [Example 147, 1-(2-hydroyx-2-methylpropyl)-6-(1-methyl-1H-pyrazol-4-yl)-N-((αR)-6-(4-oxo-3,4-dihydrophthalazin-1-yl)spiro[3.3]heptan-2-yl)-1H-indazole-3-carboxamide]: the IC50 was in the range of 2.01 to 5 nM.

For `CC(C)(O)Cn1nc(C(=O)NC2CC3(C2)CC(c2n[nH]c(=O)c4ccccc24)C3)c2ccc(C=Cc3ccccc3)cc21` (stereo not drawn) [Example 148, 1-(2-hydroxy-2-methylpropyl)-N-((αR)-6-(4-oxo-3,4-dihydrophthalazin-1-yl)spiro[3.3]heptan-2-yl)-6-((E)-styryl)-1H-indazole-3-carboxamide], the IC50 fell in the range of 5.1 to 15 nM.

For `CC(C)(O)Cn1nc(C(=O)NC2CC3(C2)CC(c2n[nH]c(=O)c4ccccc24)C3)c2ccc(C=CC3CC3)cc21` (stereo not drawn) [Example 149, 6-((E)-2-cyclopropylvinyl)-1-(2-hydroxy-2-methylpropyl)-N-((αR)-6-(4-oxo-3,4-dihydrophthalazin-1-yl)spiro[3.3]heptan-2-yl)-1H-indazole-3-carboxamide], the half-inhibitory concentration (IC50) was in the range of 5.1 to 15 nM.

As for `COc1cccc(-c2ccc3c(C(=O)NC4CC5(C4)CC(c4n[nH]c(=O)c6ccccc46)C5)nn(CC(C)(C)O)c3c2)n1` (stereo not drawn) [Example 150, 1-(2-hydroxy-2-methylpropyl)-6-(6-methoxypyridin-2-yl)-N-((αR)-6-(4-oxo-3,4-dihydrophthalazin-1-yl)spiro[3.3]heptan-2-yl)-1H-indazole-3-carboxamide], the half-maximal inhibitory concentration (IC50) is 2.01 to 5 nM.

For `CC(C)(O)Cn1nc(C(=O)NC2CC3(C2)CC(c2n[nH]c(=O)c4ccccc24)C3)c2ccc(/C=C\C3CC3)cc21` (stereo not drawn) [Example 151, 6-((Z)-2-cyclopropylvinyl)-1-(2-hydroxy-2-methylpropyl)-N-((αR)-6-(4-oxo-3,4-dihydrophthalazin-1-yl)spiro[3.3]heptan-2-yl)-1H-indazole-3-carboxamide], the IC50 fell in the range of 5.1 to 15 nM.

`CC(C)(O)Cn1nc(C(=O)N[C@H]2CC3(C2)C[C@H](c2n[nH]c(=O)c4ccccc42)C3)c2ccc(Br)cc21` (stereo partly drawn) [Example 152, 6-bromo-1-(2-hydroxy-2-methylpropyl)-N-((αR)-6-(4-oxo-3,4-dihydrophthalazin-1-yl)spiro[3.3]heptan-2-yl)-1H-indazole-3-carboxamide]: the IC50 was in the range of 2.01 to 5 nM.

For `COc1ccc(-c2ccc3c(C(=O)NC4CC5(C4)CC(c4n[nH]c(=O)c6ccccc46)C5)nn(CC(C)(C)O)c3c2)cc1` (stereo not drawn) [Example 153, 1-(2-hydroxy-2-methylpropyl)-6-(4-methoxyphenyl)-N-((αR)-6-(4-oxo-3,4-dihydrophthalazin-1-yl)spiro[3.3]heptan-2-yl)-1H-indazole-3-carboxamide], the IC50 is 2.01 to 5 nM.

For the compound `Cn1cc(-c2ccc3c(C(=O)NC4CC5(C4)CC(c4n[nH]c(=O)c6ccccc46)C5)nn(CC(C)(C)O)c3c2)nn1` (stereo not drawn) [Example 154, 1-(2-hydroxy-2-methylpropyl)-6-(1-methyl-1H-1,2,3-triazol-4-yl)-N-((αR)-6-(4-oxo-3,4-dihydrophthalazin-1-yl)spiro[3.3]heptan-2-yl)-1H-indazole-3-carboxamide], the 50% inhibitory concentration (IC50) lay in the range of 2.01 to 5 nM.

`Cc1noc(C)c1-c1ccc2c(C(=O)NC3CC4(C3)CC(c3n[nH]c(=O)c5ccccc35)C4)nn(CC(C)(C)O)c2c1` (stereo not drawn) [Example 155, 6-(3,5-dimethylisoxazol-4-yl)-1-(2-hydroxy-2-methylpropyl)-N-((αR)-6-(4-oxo-3,4-dihydrophthalazin-1-yl)spiro[3.3]heptan-2-yl)-1H-indazole-3-carboxamide]: the IC50 lay in the range of 2.01 to 5 nM.

Turning to `CC(C)(O)Cn1nc(C(=O)NC2CC3(C2)CC(c2n[nH]c(=O)c4ccccc24)C3)c2ccc(-c3cccc(Cl)c3)cc21` (stereo not drawn) [Example 156, 6-(3-chlorophenyl)-1-(2-hydroxy-2-methylpropyl)-N-((αR)-6-(4-oxo-3,4-dihydrophthalazin-1-yl)spiro[3.3]heptan-2-yl)-1H-indazole-3-carboxamide], the concentration for half-maximal inhibition (IC50) was 5.1 to 15 nM.

Consider `COc1ccccc1-c1ccc2c(C(=O)NC3CC4(C3)CC(c3n[nH]c(=O)c5ccccc35)C4)nn(CC(C)(C)O)c2c1` (stereo not drawn) [Example 157, 1-(2-hydroxy-2-methylpropyl)-6-(2-methoxyphenyl)-N-((αR)-6-(4-oxo-3,4-dihydrophthalazin-1-yl)spiro[3.3]heptan-2-yl)-1H-indazole-3-carboxamide], for which the IC50 lay within 0.2 to 2 nM.

`COc1cccc(-c2ccc3c(C(=O)NC4CC5(C4)CC(c4n[nH]c(=O)c6ccccc46)C5)nn(CC(C)(C)O)c3c2)c1` (stereo not drawn) [Example 158, 1-(2-hydroxy-2-methylpropyl)-6-(3-methoxyphenyl)-N-((αR)-6-(4-oxo-3,4-dihydrophthalazin-1-yl)spiro[3.3]heptan-2-yl)-1H-indazole-3-carobxamide]: the IC50 lay within 2.01 to 5 nM.

With `CC(C)(O)Cn1nc(C(=O)NC2CC3(C2)CC(c2n[nH]c(=O)c4ccccc24)C3)c2ccc(-c3c(F)cccc3F)cc21` (stereo not drawn) [Example 159, 6-(2,6-difluorophenyl)-1-(2-hydroxy-2-methylpropyl)-N-((αR)-6-(4-oxo-3,4-dihydrophthalazin-1-yl)spiro[3.3]heptan-2-yl)-1H-indazole-3-carboxamide], the 50% inhibitory concentration (IC50) was in the range of 2.01 to 5 nM.

With `CC(C)(O)Cn1nc(C(=O)NC2CC3(C2)CC(c2n[nH]c(=O)c4ccccc24)C3)c2ccc(-c3ccccc3C#N)cc21` (stereo not drawn) [Example 160, 6-(2-cyanophenyl)-1-(2-hydroxy-2-methylpropyl)-N-((αR)-6-(4-oxo-3,4-dihydrophthalazin-1-yl)spiro[3.3]heptan-2-yl)-1H-indazole-3-carboxamide], the IC50 fell in the range of 0.2 to 2 nM.

As to `CC(C)(O)Cn1nc(C(=O)NC2CC3(C2)CC(c2n[nH]c(=O)c4ccccc24)C3)c2ccc(-c3cnoc3)cc21` (stereo not drawn) [Example 161, 1-(2-hydroxy-2-methylpropyl)-6-(isoxazol-4-yl)-N-((αR)-6-(4-oxo-3,4-dihydrophthalazin-1-yl)psiro[3.3]heptan-2-yl)-1H-indazole-3-carboxamide], the IC50 lay in the range of 5.1 to 15 nM.

Turning to `CC(C)(O)Cn1nc(C(=O)NC2CC3(C2)CC(F)(c2n[nH]c(=O)c4ccccc24)C3)c2ccccc21` (stereo not drawn) [Example 162, N-(6-fluoro-6-(4-oxo-3,4-dihydrophthalazin-1-yl)spiro[3.3]heptan-2-yl)-1-(2-hydroxy-2-methylpropyl)-1H-indazole-3-carboxamide], the IC50 lay in the range of 15.1 to 100 nM.
